Test results reported in US9550811B2, “Peptide scaffold design” (BIONOR IMMUNO AS, priority 2010, dated 2017).
Several values for one entry are separate records, joined by “and”; a condition that tells them apart may be missing. Equal values may be shown once. Read-outs that look alike come from different tables or passages of the source. Where no end group is shown, it is not given here. [ ]: non-standard residue; d: D form. Cit = NC(=O)NCCC[C@H](N)C(=O)O; Nle = CCCC[C@H](N)C(=O)O

Columns and labels:
[1] = tested on: PBMC samples from HCV patients; assay: Human IFN-gamma cytotoxic T-cell (CTL) response by ELISPOT assay; assay type: cell-based
Experimental: Human IFN-Gamma Cytotoxic T-Cell (CTL) Response by ELISPOT Assay
Briefly, at day 1, PBMC samples from HCV patients were incubated in flasks (430 000 PBMCs/cm2) for 2 h at 37° C., 5% CO2 in covering amount of culture media (RPMI 1640 Fisher Scientific; Cat No. PAAE15-039 supplemented with L-Glutamine, (MedProbe Cat. No. 13E17-605E, 10% Foetal Bovine serum (FBS), Fisher Scientific Cat. No. A15-101) and Penicillin/Streptomycin, (Fisher Acientific Cat. No. P11-010) in order to allow adherence of monocytes. Non-adherent cells were isolated, washed, and frozen in 10% V/V DMSO in FBS until further usage. Adherent cells were carefully washed with culture media, followed by incubation at 37° C. until day 3 in culture media containing 2 μg/ml final concentration of hrGM-CSF (Xiamen amoytop biotech co, cat no: 3004.9090.90) & 1 μg/ml hrIL-4 (Invitrogen, Cat no: PHC0043), and this procedure was then repeated at day 6. At day 7, cultured dendritic cells (5 000-10 000 per well) were added to ELISPOT (Millipore multiscreen HTS) plates coated with 0.5 μg/well anti-human γ Interferon together with thawed autologous non-adherent cells (200 000 per well), antigen samples (1-8 ug/ml final concentration for peptide antigens; 5 ug/ml final concentration for Concanavalin A (Sigma, Cat no: C7275) or PHA (Sigma, Cat no: L2769)) & anti-Anergy antibodies (0.03-0.05 ug/ml final concentration for both anti-PD-1 (eBioscience, cat no: 16-9989-82) & anti-PD-L1 (eBioscience, cat no: 16-5983-82)). Plates were incubated overnight and spots were developed according to manufacturer. Spots were read on ELISPOT reader (CTL-ImmunoSpot® S5 UV Analyzer).

human PBMCs [2] = assay type: cell-based
human PBMCs [3] = assay: Extracellular staining for biotinylated peptides (flow cytometry); assay type: cell-based
Experimental: (§1) 96-well U-bottom polystyrene plates (NUNC, cat no: 163320) were used for staining of human PBMCs. Briefly, 8 ul of N- or C-terminally biotinylated peptides according to table 1 or table 2 (i.e. 5 mM, 2.5 mM & 1.25 mM tested for each peptide; all peptides manufactured by Schafer) were incubated at 37° C. for 2 h with 40 ul of PBMC (12.5×10^6 cells/ml) from blood donors. Cells were then washed 3× with 150 ul of Cellwash (BD, cat no: 349524), then stained with Streptavidin-APC (BD, cat no: 554067) & Anti-hCD11c (eBioscience, cat no: 12-0116) according to manufacturer at 4° C. for 30 min aiming to visualize biotinylated peptides & dendritic cells, respectively. Cells were then washed 3× with 150 ul of Cellwash (BD, cat no: 349524), followed by resuspension in staining buffer (BD, cat no: 554656) before flow cytometry. Dendritic cells were gated as CD11c+ events outside lymphocyte region (i.e. higher FSC & SSC signals than lymphocytes). 200 000 total cells were acquired on a FACSCanto II flow cytometer with HTS loader, and histograms for both total cells & dendritic cells with respect to peptide-fluorescence (i.e. GeoMean) were prepared.

DC-cells = assay: Cell penetration assay: staining for biotinylated peptides, dendritic cells gated as CD11c+; assay type: cell-based, human; details: low concentration of peptides (208 uM)
Experimental: A set of peptides were biotinylated on N-terminal, and different combinations of aminoacids, with respect to length and type, were added to the sequence box X^1, X^3 and X^4 in the peptides as illustrated by the diagram below. The peptides were tested on cells grown from one individual blood donor.
as §1, with “for each peptide) were incubated” for “for each peptide; all peptides manufactured by Schafer) were incubated”, “no: 349524), followed by resuspension of each cell pellet with 100 ul of Trypsin-EDTA (Sigma, cat no: T4424), then incubated at 37° C. for 5 min. Trypsinated cells were then washed 3× with 150 ul of Cellwash (BD, cat no: 349524), followed by resuspension with BD Cytofix/Cytoperm™ plus (BD, cat no: 554715), then incubated at 4° C. for 20 min according to manufacturer. Cells were then washed 2× with 150 ul PermWash (BD, cat no: 554715). Cells were then stained” for “no: 349524), then stained”, “150 ul PermWash, followed by” for “150 ul of Cellwash (BD, cat no: 349524), followed by”
As shown in table 4 the peptides according to the invention had the ability to allocate through the cell membrane.

HLA-A1 = assay: REVEAL binding assay; details: score as percentage of the signal generated by the positive control peptide
Experimental: (§3) Binding properties to HLA for the ninemers listed in table 6 were tested for the following HLA-classes:
(§4) HLA-A1, HLA-A2, HLA-A3, HLA-A11, HLA-A24, HLA-A29, HLA-B7, HLA-B8, HLA-B14, HLA-B15, HLA-B27, HLA-B35, HLA-B40.
(§5) The REVEAL™ binding assay determined the ability of each candidate peptide to bind to one or more MHC class I alleles and stabilizing the MHC-peptide complex. […] Detection is based on the presence or absence of the native conformation of the MHC-peptide complex. Each peptide is given a score relative to the positive control peptide, which is a known T cell epitope.

HLA-A24 = assay: REVEAL binding assay; details: score as percentage of the signal generated by the positive control peptide
Experimental: as §3, §4, §5

HLA-A29 = assay: REVEAL binding assay; details: score as percentage of the signal generated by the positive control peptide
Description: as §4, §5

HLA-B8 = assay: REVEAL binding assay; details: score as percentage of the signal generated by the positive control peptide
Description: as §4, §5

HLA-B14 = assay: REVEAL binding assay; details: score as percentage of the signal generated by the positive control peptide
Description: as §4, §5

HLA-B15 = assay: REVEAL binding assay; details: score as percentage of the signal generated by the positive control peptide
HLA-A11 = HLA-A11 (Homo sapiens, UniProt P04439, A114D/F33Y/S129P); assay: REVEAL binding assay; details: score as percentage of the signal generated by the positive control peptide
Procedure, shortened: (§2)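 Synthetic nonamer peptides were tested for their ability to bind and stabilize MHC class I–peptide complexes, detected by the native conformation of the complex. Each peptide is scored relative to a positive-control known T-cell epitope.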

HLA-A2 = HLA-A2 (Homo sapiens, UniProt P04439, D140Y/D185E/D98H/E176V/E277Q/G131W/G231S/I119V/I121R/I166T/I218V/N151K/N90K/P208A/P217A/Q86G/Q94H/R138H/R169H); assay: REVEAL binding assay; details: score as percentage of the signal generated by the positive control peptide
Procedure, shortened: as §2

HLA-A3 = HLA-A3 (Homo sapiens, UniProt P04439); assay: REVEAL binding assay; details: score as percentage of the signal generated by the positive control peptide
Procedure, shortened: as §2

HLA-B27 = HLA-B27 (Homo sapiens, UniProt P01889, D138H/D201E/E176V/E204Q/G107R/H137Y/K202T/N104T/N87E/Q56L/Q94K/R106L/R155S/R180L/S101D/S121N/S48T/Y140D/Y33H/Y91C); assay: REVEAL binding assay; details: score as percentage of the signal generated by the positive control peptide
Procedure, shortened: as §2

HLA-B7 = HLA-B7 (Homo sapiens, UniProt P01889); assay: REVEAL binding assay; details: score as percentage of the signal generated by the positive control peptide
Procedure, shortened: as §2

HLA-B35 = assay: REVEAL binding assay; details: score as percentage of the signal generated by the positive control peptide
Description: as §4, §5

HLA-B40 = assay: REVEAL binding assay; details: score as percentage of the signal generated by the positive control peptide
Procedure, shortened: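 Read-out: presence or absence of natively folded MHC–peptide complex. Values expressed as % of positive-control epitope signal per allele, plus putative pass/fail; weaker-binding intermediate control included.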

[4] = Example 4, negative control = 1.00

HLA-B7, sequence (P61769 21-119): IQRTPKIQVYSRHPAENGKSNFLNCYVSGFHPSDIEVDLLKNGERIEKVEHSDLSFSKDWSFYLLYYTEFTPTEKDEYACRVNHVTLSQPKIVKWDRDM
HLA-B7, sequence (P01889 25-299): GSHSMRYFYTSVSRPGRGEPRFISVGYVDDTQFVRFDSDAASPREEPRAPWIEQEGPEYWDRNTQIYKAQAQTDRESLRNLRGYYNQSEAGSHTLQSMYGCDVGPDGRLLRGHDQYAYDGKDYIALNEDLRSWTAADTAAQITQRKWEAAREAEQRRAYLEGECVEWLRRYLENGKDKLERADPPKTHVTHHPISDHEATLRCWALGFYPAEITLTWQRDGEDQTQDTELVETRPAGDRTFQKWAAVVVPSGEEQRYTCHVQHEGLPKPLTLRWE
HLA-A3, sequence (P04439 25-299): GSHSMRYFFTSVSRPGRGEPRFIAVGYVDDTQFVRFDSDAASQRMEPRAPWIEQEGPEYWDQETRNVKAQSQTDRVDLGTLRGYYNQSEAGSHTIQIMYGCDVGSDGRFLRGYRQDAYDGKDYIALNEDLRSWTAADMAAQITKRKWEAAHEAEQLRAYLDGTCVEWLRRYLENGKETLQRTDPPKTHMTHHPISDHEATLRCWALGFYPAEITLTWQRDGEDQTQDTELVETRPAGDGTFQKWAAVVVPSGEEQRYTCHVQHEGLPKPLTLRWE
HLA-A3, sequence (P61769 21-119, further chain): as the sequence (P61769 21-119) above

Concanavalin A [ConA, reference compound]
IFN-g ELISPOT (T-cell spots) ([1]; Patient A (HCV patient)): 5090 and 5035 | IFN-g ELISPOT (T-cell spots) ([1]; Patient B (HCV patient)): 2605 and 2725 | IFN-g ELISPOT (T-cell spots) ([1]; Patient C (HCV patient)): 1355 and 700 | IFN-g ELISPOT (T-cell spots) ([1]; Patient D (HCV patient)): 529 and 512

EEGYIPLVGAPLGEEVARALAHGVRV [compound 10, HCV (Not scaffold)]
Intracellular staining, median (human PBMCs [2]): 1.16 | Extracellular staining, median (human PBMCs [3]): 1.95

GGGYIPLVGAPLGGGVARALAHGVRV [compound 11, HCV (Not scaffold)]
Intracellular staining, median (human PBMCs [2]): 2.01 | Extracellular staining, median (human PBMCs [3]): 2.62

GYIPLVGAPLGGVARALAHGVRV [compound 5]
Intracellular staining, median (human PBMCs [2]): 1.84 | Extracellular staining, median (human PBMCs [3]): 2.08

PVVHLTLRQAGDDFSR [N-biotin, reference compound]
Intracellular staining, median (human PBMCs [2]): 1.00 | Results on DC-cells (geomean peptide-fluorescence) (DC-cells; BC 16): 3591 and 2271 | Results on DC-cells (geomean peptide-fluorescence) (DC-cells; BC 16, listed as n-biotin): 3745 | Results on DC-cells (geomean peptide-fluorescence) (DC-cells; BC43): 3631 | Results on DC-cells (geomean peptide-fluorescence) (DC-cells; BC43, listed as n-biotin): 1967 | Extracellular staining, median (human PBMCs [3]; [4]): 1.00

RGYIPLVGAPLGRRRVARALAHGVRVR [compound 6]
Intracellular staining, median (human PBMCs [2]): 5.35 | Extracellular staining, median (human PBMCs [3]): 2.20

RGYLPAVGAPIGRRRVIRVIAHGLRLR [compound 7]
Intracellular staining, median (human PBMCs [2]): 11.59 | Extracellular staining, median (human PBMCs [3]): 29.42

RQIKIWFQNRRMKWKK [P-biotin, reference compound]
Intracellular staining, median (human PBMCs [2]): 2.73 | Results on DC-cells (geomean peptide-fluorescence) (DC-cells; BC43): 26212 and 33545 | Extracellular staining, median (human PBMCs [3]; [4]): 9.15

RRGGGQIVGGVYLLPRRGPRLGVRATR [compound 14]
Intracellular staining, median (human PBMCs [2]): 4.81 | Extracellular staining, median (human PBMCs [3]): 17.00

RRGPVVHLTLRRRGQAGDDFS [compound 2, Neg control in scaffold, reference compound]
Intracellular staining, median (human PBMCs [2]): 4.12 | Extracellular staining, median (human PBMCs [3]): 1.77

RRGYIPLVGAPLGRRRVARALAHGVRV [compound 9]
Intracellular staining, median (human PBMCs [2]): 3.25 | Extracellular staining, median (human PBMCs [3]): 2.06

RRGYIPLVGAPLGRRVARALAHGVRV [compound 8]
Intracellular staining, median (human PBMCs [2]): 6.92 | Extracellular staining, median (human PBMCs [3]): 3.06

RRIRNLGRVIETLTLZGYIPLIGARRIRNLGRVIETLTLZGYIPLIGAR [compound 20]
Intracellular staining, median (human PBMCs [2]): 13.25 | Extracellular staining, median (human PBMCs [3]): 126.5

RRSRNLGKVIDTLTCRRLMGYIPLVGA [compound 13]
Intracellular staining, median (human PBMCs [2]): 21.43 | Extracellular staining, median (human PBMCs [3]): 16.80

WGYIPLVGAPLGRRVARALAHGVRV [compound 19]
Intracellular staining, median (human PBMCs [2]): 17.41 | Results on DC-cells (geomean peptide-fluorescence) (DC-cells; BC 16): 8417 | Results on DC-cells (geomean peptide-fluorescence) (DC-cells; BC43): 6372 | Extracellular staining, median (human PBMCs [3]): 1.37

YVTGNIPGS
REVEAL binding score, HLA-type A1 (HLA-A1): 13.33% | REVEAL binding score, HLA-type A24 (HLA-A24): 2.71% | REVEAL binding score, HLA-type A29 (HLA-A29): 10.29% | REVEAL binding score, HLA-type B8 (HLA-B8): 12.40% | REVEAL binding score, HLA-type B14 (HLA-B14): 0.76% | REVEAL binding score, HLA-type B15 (HLA-B15): 6.16% | REVEAL binding score, HLA-type A11 (HLA-A11): 5.18% | REVEAL binding score, HLA-type A2 (HLA-A2): 6.88% | REVEAL binding score, HLA-type A3 (HLA-A3): 5.34% | REVEAL binding score, HLA-type B27 (HLA-B27): 1.98% | REVEAL binding score, HLA-type B7 (HLA-B7): 2.70% | REVEAL binding score, HLA-type B35 (HLA-B35): 4.42% | REVEAL binding score, HLA-type B40 (HLA-B40): 88.29%

[Cit]IGVRAT[Cit]R
REVEAL binding score, HLA-type A1 (HLA-A1): 19.68% | REVEAL binding score, HLA-type A24 (HLA-A24): 0.50% | REVEAL binding score, HLA-type A29 (HLA-A29): 16.67% | REVEAL binding score, HLA-type B8 (HLA-B8): 12.09% | REVEAL binding score, HLA-type B14 (HLA-B14): 0.17% | REVEAL binding score, HLA-type B15 (HLA-B15): 14.45% | REVEAL binding score, HLA-type A11 (HLA-A11): 8.27% | REVEAL binding score, HLA-type A2 (HLA-A2): 8.17% | REVEAL binding score, HLA-type A3 (HLA-A3): 25.16% | REVEAL binding score, HLA-type B27 (HLA-B27): 0.86% | REVEAL binding score, HLA-type B7 (HLA-B7): 14.59% | REVEAL binding score, HLA-type B35 (HLA-B35): 8.51% | REVEAL binding score, HLA-type B40 (HLA-B40): 18.45%

[Nle]GYIPLIGA
REVEAL binding score, HLA-type A1 (HLA-A1): 17.87% | REVEAL binding score, HLA-type A24 (HLA-A24): 1.33% | REVEAL binding score, HLA-type A29 (HLA-A29): 27.85% | REVEAL binding score, HLA-type B8 (HLA-B8): 21.35% | REVEAL binding score, HLA-type B14 (HLA-B14): 0.29% | REVEAL binding score, HLA-type B15 (HLA-B15): 11.07% | REVEAL binding score, HLA-type A11 (HLA-A11): 7.27% | REVEAL binding score, HLA-type A2 (HLA-A2): 10.43% | REVEAL binding score, HLA-type A3 (HLA-A3): 3.13% | REVEAL binding score, HLA-type B27 (HLA-B27): 1.42% | REVEAL binding score, HLA-type B7 (HLA-B7): 1.78% | REVEAL binding score, HLA-type B35 (HLA-B35): 5.89% | REVEAL binding score, HLA-type B40 (HLA-B40): 60.84%
